Assay [1] addresses T1, HCV polymerase (NS5B) type 1b (Hepatitis C virus genotype 1b, UniProt P26663).
T1 construct: a region encoding NS5B (J Virol 1991 March, 65(3), 1105-13, 544 amino acids after deletion of 47 amino acids on the C-terminal); 6xHis (C); made in house; host or cells: Escherichia coli
The assay can be described thus: Assay of enzyme (HCV polymerase) inhibitory activity, type 1b enzyme. The class given is biochemical, HCV BK strain (type 1b). Particulars: HCV polymerase inhibitory activity IC50, 1b, type 1b enzyme. An outline of the steps: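 His-tagged, C-terminally truncated NS5B (BK strain, 1b; 0.5 μg/ml) incubated with compound 60 min at 25 °C on 3′UTR-derived substrate RNA (5 μg/ml), 50 μM ATP/GTP/CTP, 2 μM UTP plus [3H]UTP, pH 7.5. Acid-precipitated RNA counted; IC50 from radioactivity with and without compound.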

In assay [2] the target is T2, HCV polymerase (NS5B) type 1a (Hepatitis C virus genotype 1a, UniProt P26664).
T2 construct: made in house; host or cells: Escherichia coli (by the 'similar method' of the 1b enzyme)
Description: Assay of enzyme (HCV polymerase) inhibitory activity, type 1a enzyme. The class given is biochemical, HCV type 1a (cloned from the blood of patients). The following applies: HCV polymerase inhibitory activity IC50, 1a, type 1a enzyme. An outline of the steps:
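His-tagged NS5B, C-terminal 47 residues deleted, type 1a at 1.5 μg/ml, with 5 μg/ml HCV 3′UTR substrate RNA, 50 μM ATP/GTP/CTP, 2 μM UTP plus [3H]UTP, pH 7.5 Tris, 5 mM MgCl2; 60 min at 25° C. TCA-precipitated RNA counted by scintillation; IC50 from radioactivity with vs. without compound.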

As a reminder, the IC50 is the concentration that inhibits the measured activity by half. Read a low IC50 as greater potency.

In the case of `CCC(F)(F)c1ccc(CNC(=O)[C@H]2CN(c3nc4cnncc4s3)CCN2S(=O)(=O)c2ccc(OC(F)(F)F)cc2)cc1` [Example 694, (R)-4-thiazolo[4,5-d]pyridazin-2-yl-1-(4-trifluoromethoxy-benzenesulfonyl)-piperazine-2-carboxylic acid 4-(1,1-difluoro-propyl)-benzylamide], the 50% inhibitory concentration (IC50) in assay [1] and in assay [2] was less than 100 nM in each case.
For the compound `CCC(F)(F)c1ccc(CNC(=O)[C@H]2CN(c3cnc4cncnc4n3)CCN2S(=O)(=O)c2ccc(C(C)(C)C)cc2)cc1` [Example 695, (R)-1-(4-tert-butyl-benzenesulfonyl)-4-pteridin-7-yl-piperazine-2-carboxylic acid 4-(1,1-difluoro-propyl)-benzylamide], the half-maximal inhibitory concentration (IC50) in assay [1] and in assay [2] was less than 100 nM each time.
Turning to `CCC(F)(F)c1ccc(CNC(=O)[C@H]2CN(c3cnc4cncnc4n3)CCN2S(=O)(=O)c2ccc(-c3ccccc3)cc2)cc1` [Example 696, (R)-1-(biphenyl-4-sulfonyl)-4-pteridin-7-yl-piperazine-2-carboxylic acid 4-(1,1-difluoro-propyl)-benzylamide], the IC50 in assay [1] and in assay [2] was less than 100 nM each time.
In the case of `CCC(F)(F)c1ccc(CNC(=O)[C@H]2CN(c3cnc4cncnc4n3)CCN2S(=O)(=O)c2ccc(Cl)cc2)cc1` [Example 697, (R)-1-(4-chloro-benzenesulfonyl)-4-pteridin-7-yl-piperazine-2-carboxylic acid 4-(1,1-difluoro-propyl)-benzylamide], the IC50 in assay [1] and in assay [2] was less than 100 nM in each case.
For the compound `CCC(F)(F)c1ccc(CNC(=O)[C@H]2CN(c3cnc4cncnc4n3)CCN2S(=O)(=O)c2ccc([N+](=O)[O-])cc2)cc1` [Example 698, (R)-1-(4-nitro-benzenesulfonyl)-4-pteridin-7-yl-piperazine-2-carboxylic acid 4-(1,1-difluoro-propyl)-benzylamide], the half-maximal inhibitory concentration (IC50) in assay [1] and in assay [2] was less than 100 nM throughout.
As for `CCCc1ccc(CNC(=O)[C@H]2CN(c3cnc(C(=O)O)cn3)CCN2S(=O)(=O)c2ccc(Br)s2)cc1` [Example 699, (R)-4-(5-bromo-thiophene-2-sulfonyl)-3-(4-propyl-benzylcarbamoyl)-3,4,5,6-tetrahydro-2H-[1,2′]bipyrazinyl-5′-carboxylic acid], the half-inhibitory concentration (IC50) in assay [1] and in assay [2] was less than 100 nM in each case.
For `CCCc1ccc(CNC(=O)[C@H]2CN(c3cnc(C(=O)O)cn3)CCN2S(=O)(=O)c2ccc(C(C)(C)C)cc2)cc1` [Example 700, (R)-4-(4-tert-butyl-benzenesulfonyl)-3-(4-propyl-benzylcarbamoyl)-3,4,5,6-tetrahydro-2H-[1,2′]bipyrazinyl-5′-carboxylic acid], the IC50 in assay [1] and in assay [2] was less than 100 nM in each case.
For `CCCc1ccc(CNC(=O)[C@H]2CN(c3cnc(C(=O)O)cn3)CCN2S(=O)(=O)c2ccc(-c3ccccc3)cc2)cc1` [Example 701, (R)-4-(biphenyl-4-sulfonyl)-3-(4-propyl-benzylcarbamoyl)-3,4,5,6-tetrahydro-2H-[1,2′]bipyrazinyl-5′-carboxylic acid], the half-inhibitory concentration (IC50) in assay [1] and in assay [2] was less than 100 nM in each case.
On to `CC(=O)N1CCN(S(=O)(=O)c2ccc(OC(F)(F)F)cc2)[C@@H](C(=O)NCc2ccc(CCCO)cc2)C1` [Example 702, (R)-4-acetyl-1-(4-trifluoromethoxy-benzenesulfonyl)-piperazine-2-carboxylic acid 4-(3-hydroxy-propyl)-benzylamide], for which the concentration for half-maximal inhibition (IC50) in assay [1] and in assay [2] was greater than 1000 nM throughout.
With `CCCn1cc(CNC(=O)[C@H]2CN(C(C)=O)CCN2S(=O)(=O)c2ccc(OC(F)(F)F)cc2)cn1` [Example 703, (R)-4-acetyl-1-(4-trifluoromethoxy-benzenesulfonyl)-piperazine-2-carboxylic acid (1-propyl-1H-pyrazol-4-ylmethyl)-amide], the IC50 in assay [1] and in assay [2] was greater than 1000 nM each time.
As for `CCC(F)(F)c1ccc(CNC(=O)[C@H]2CN(C3=NC(=O)CS3)CCN2S(=O)(=O)c2ccc(OC(F)(F)F)cc2)cc1` [Example 704, (R)-4-(4-oxo-4,5-dihydro-thiazol-2-yl)-1-(4-trifluoromethoxy-benzenesulfonyl)-piperazine-2-carboxylic acid 4-(1,1-difluoro-propyl)-benzylamide], the half-maximal inhibitory concentration (IC50) in assay [1] and in assay [2] was less than 100 nM throughout.
For the compound `CCC(F)(F)c1ccc(CNC(=O)[C@H]2CN(C(=O)N3CC(C(=O)O)C3)CCN2S(=O)(=O)c2ccc(OC(F)(F)F)cc2)cc1` [Example 705, 1-[(R)-3-[4-(1,1-difluoro-propyl)-benzylcarbamoyl]-4-(4-trifluoromethoxy-benzenesulfonyl)-piperazine-1-carbonyl]-azetidine-3-carboxylic acid], the IC50 in assay [1] and in assay [2] was greater than 1000 nM each time.
Regarding `CCC(F)(F)c1ccc(CNC(=O)[C@H]2CN(C(=O)N3CCC(C(=O)O)CC3)CCN2S(=O)(=O)c2ccc(OC(F)(F)F)cc2)cc1` [Example 706, 1-[(R)-3-[4-(1,1-difluoro-propyl)-benzylcarbamoyl]-4-(4-trifluoromethoxy-benzenesulfonyl)-piperazine-1-carbonyl]-piperidine-4-carboxylic acid], the concentration for half-maximal inhibition (IC50) in assay [1] and in assay [2] was greater than 1000 nM throughout.
Consider `CCC(F)(F)c1ccc(CNC(=O)[C@H]2CN(c3cnc4ncncc4n3)CCN2S(=O)(=O)c2ccc(OC(F)(F)F)cc2)cc1` [Example 707, (R)-4-pteridin-6-yl-1-(4-trifluoromethoxy-benzenesulfonyl)-piperazine-2-carboxylic acid 4-(1,1-difluoro-propyl)-benzylamide], for which the IC50 in assay [1] and in assay [2] was less than 100 nM throughout.
For the compound `CCC(F)(F)c1ccc(CNC(=O)[C@H]2CN(c3cnc4cncnc4n3)CCN2S(=O)(=O)c2ccc(I)cc2)cc1` [Example 708, (R)-1-(4-iodo-benzenesulfonyl)-4-pteridin-7-yl-piperazine-2-carboxylic acid 4-(1,1-difluoro-propyl)-benzylamide], the IC50 in assay [1] and in assay [2] was less than 100 nM in each case.
As for `CCC(F)(F)c1ccc(CNC(=O)[C@H]2CN(c3cnc4cncnc4n3)CCN2S(=O)(=O)c2ccc(-c3cccs3)cc2)cc1` [Example 709, (R)-4-pteridin-7-yl-1-(4-thiophen-2-yl-benzenesulfonyl)-piperazine-2-carboxylic acid 4-(1,1-difluoro-propyl)-benzylamide], the IC50 in assay [1] and in assay [2] was less than 100 nM in each case.
Consider `CCOC(=O)c1ccc2ncc(N3CCN(S(=O)(=O)c4ccc(OC(F)(F)F)cc4)[C@@H](C(=O)NCc4ccc(C(F)(F)CC)cc4)C3)nc2c1` [Example 710, 3-[(R)-3-[4-(1,1-difluoro-propyl)-benzylcarbamoyl]-4-(4-trifluoromethoxy-benzenesulfonyl)-piperazin-1-yl]-quinoxaline-6-carboxylic acid ethyl ester], for which the half-inhibitory concentration (IC50) in assay [1] and in assay [2] was 100 to 1000 nM each time.
With `CCC(F)(F)c1ccc(CNC(=O)[C@H]2CN(c3cnc4ccc(C(=O)O)cc4n3)CCN2S(=O)(=O)c2ccc(OC(F)(F)F)cc2)cc1` [Example 711, 3-[(R)-3-[4-(1,1-difluoro-propyl)-benzylcarbamoyl]-4-(4-trifluoromethoxy-benzenesulfonyl)-piperazin-1-yl]-quinoxaline-6-carboxylic acid], the results for the half-maximal inhibitory concentration (IC50) in assay [1] and in assay [2] were less than 100 nM and 100 to 1000 nM, respectively.
For `CCC(F)(F)c1ccc(CNC(=O)[C@H]2CN(c3cnc4cc(C(=O)O)ccc4n3)CCN2S(=O)(=O)c2ccc(OC(F)(F)F)cc2)cc1` [Example 712, 2-[(R)-3-[4-(1,1-difluoro-propyl)-benzylcarbamoyl]-4-(4-trifluoromethoxy-benzenesulfonyl)-piperazin-1-yl]-quinoxaline-6-carboxylic acid], in that order: less than 100 nM and less than 100 nM.
For `CCC(F)(F)c1ccc(CNC(=O)[C@H]2CN(c3cnc4cnccc4n3)CCN2S(=O)(=O)c2ccc(Cl)cc2)cc1` [Example 713, (R)-1-(4-chloro-benzenesulfonyl)-4-pyrido[3,4-b]pyrazin-2-yl-piperazine-2-carboxylic acid 4-(1,1-difluoro-propyl)-benzylamide], in that order: less than 100 nM and less than 100 nM.
Taken in the same sequence, the figures for `CCC(F)(F)c1ccc(CNC(=O)[C@H]2CN(c3cnc4cnccc4n3)CCN2S(=O)(=O)c2ccc(C(C)(C)C)cc2)cc1` [Example 714, (R)-1-(4-tert-butyl-benzenesulfonyl)-4-pyrido[3,4-b]pyrazin-2-yl-piperazine-2-carboxylic acid 4-(1,1-difluoro-propyl)-benzylamide] were less than 100 nM and less than 100 nM.
As to `CCC(F)(F)c1ccc(CNC(=O)[C@H]2CN(c3nc4ccncc4s3)CCN2S(=O)(=O)c2ccc(OC(F)(F)F)cc2)cc1` [Example 715, (R)-4-thiazolo[5,4-c]pyridin-2-yl-1-(4-trifluoromethoxy-benzenesulfonyl)-piperazine-2-carboxylic acid 4-(1,1-difluoro-propyl)-benzylamide], the IC50 in assay [1] and in assay [2] was less than 100 nM throughout.
